Columns and labels:
MOLM14 cells (FLT3 ITD) = experiment: XTT-based cellular proliferation assay, MOLM14; settings: Homo sapiens, MOLM-14, read-out: IC50 cellular proliferation, MOLM14
[1] = test system: Ba/F3 parental and mutant-TK transfectant cell lines; experiment: Induction of apoptosis, all tested Ba/F3 cell lines; format: cell-based, murine; settings: Mus musculus, BaF3; virtually all tested Ba/F3 cell lines; read-out: transfectant-specific IC50s, induction of apoptosis (span over cell lines)
Method: These findings are in line with our results for the corresponding tested human leukemia cell lines.
(§1) Translocation of phosphatidylserine from the inner to the outer leaflet of the plasma membrane as an early indicator of apoptosis was analyzed using an Annexin V-based assay (Immunotech, Marseilles, France) and a FACScalibur® flow cytometer loaded with CellQuest® analysis software (BD, Heidelberg, Germany).

advanced solid tumors = test system: advanced solid tumors; set-up: method as in PMID 22357447; settings: patients, phase I study; cited from earlier work
[2] = test system: pancreatic cancer cell lines; set-up: method as in PMID 22170433; settings: cited from earlier work
[3] = test system: AKT phosphorylation (S473, T308); experiment: western immunoblot of AKT signaling, Jurkat cells; format: cell-based, human
Excerpt: Rabbit anti-panAKT, panFLT3, panABL1 or anti-cleaved caspase 3 antibodies were used at a 1:500 to 1:1000 dilution. Rabbit anti-phospho-AKT antibodies detecting phosphorylated isoforms of T308-AKT, S473-AKT, S807/811-RB, S575-ULK1, T389-p70S6K, Y694-STAT5, FLT3, ABL1 or T202/Y204-ERK1/2 were used at a 1:250 to 1:1000 dilution. An anti-actin mouse monoclonal antibody was used as a loading control. All antibodies, if not otherwise indicated, were purchased from Cell Signaling Technology.
Cell pellets were lysed with 100 to 150 μl of protein lysis buffer (50 mmol/L Tris, 150 mmol/L NaCl, 1% NP40, 0.25% deoxycholate with added inhibitors aprotinin, AEBSF, leupeptin, pepstatin, sodium orthovanadate, and sodium pyruvate, respectively phosphatase inhibitor cocktails „2“ and „1“ or „3“ (Sigma, St. Louis, MO). Protein from cell lysates (75 to 200 μg protein) was used for whole cell protein analysis after denaturing by Western immunoblot assays using a BioRad Criterion system. Nonspecific binding was blocked by incubating the blots in nonfat dry milk or BSA. Primary antibodies were incubated for one hour or over night, followed by several washes of Tris-buffered saline (TBS) containing 0.005% Tween 20. The appropriate secondary antibody was applied for 30‘, followed by several washes. Antibody-reactive proteins were detected using a LI-COR Odyssey® fluorescence optical system.

Jurkat cells = experiment: annexin V-based flow cytometry apoptosis assay, Jurkat; format: cell-based; settings: Homo sapiens, read-out: IC50 apoptotic cells (linear regression analysis)
Method: as §1

Row | IC50 (Jurkat cells) [nM] | SMILES | IC50 (MOLM14 cells (FLT3 ITD)) [nM] | IC50 [1] [nM] | antitumor activity (advanced solid tumors) | effect on cell cycle [2] | phosphorylation of AKT (immunoblot) [3]
1 |  | Cn1c(=O)n(-c2ccc(C(C)(C)C#N)cc2)c2c3cc(-c4cnc5ccccc5c4)ccc3ncc21 [NVP-BEZ235] | < 100 |  |  |  | 
2 | 658 | COc1ccc(-c2ccc3ncc4c(c3c2)n(-c2ccc(N3CCNCC3)c(C(F)(F)F)c2)c(=O)n4C)cn1 [NVP-BGT226] |  | 120 to 1800 | variable antitumor activity | results in cell cycle arrest | inhibits serine (S473) as well as threonine (T308) phosphorylation of AKT

Source: paper PMC3689638, “Cell cycle-dependent activity of the novel dual PI3K-MTORC1/2 inhibitor NVP-BGT226 in acute leukemia” (Molecular Cancer, 2013)
